Converted amounts (≈) assume the structure as drawn. Like-named read-outs stand apart in the source and are kept apart here.
How the values were obtained:
[1] = tested on: Epidermophyton floccosum (FF9); assay: Antifungal activity, Epidermophyton floccosum; format: cell-based
Method: (§1) Three yeast strains (Candida albicans (ATCC 10231), Candida krusei (ATCC 6258), and Cryptococcus neoformans (CECT1078)) and filamentous fungi (one Aspergillus fumigatus (ATCC 204305) and three dermatophytes (Trichophyton rubrum (FF5), Nannizzia gypsea (formerly Microsporum gypseum-FF3) and Epidermophyton floccosum (FF9)) were used in this work. Sub-cultures were prepared in Sabouraud Dextrose Agar medium (SDA) from 1–2 days (yeasts and Aspergillus) to 5–7 days (dermatophytes) to ensure optimal growth conditions and purity.
(§2) Fungal organisms were cultured in SDA and then suspended in RPMI-1640 broth. Serial dilutions of the onion skin extract solutions, prepared from a stock solution (8 mg/mL in DMSO), were prepared in RPMI-1640 broth, starting at a concentration of 4 mg/mL. Sample dilutions and cell suspensions were distributed into 96 well plates and incubated under aerobic, humid conditions at 26 °C for dermatophytes and 36 °C for the other organisms. Incubation times were 5 to 7 days for dermatophytes, 72 h for C. neoformans, and 48 h for the remaining organisms. […] In cases where MIC was determined, 20 μL from wells without visible growth were cultured on SDA plates, incubating under the same conditions previously described for each organism. The Minimal Fungicidal Concentration (MFC) was then determined as the lowest concentration where complete no growth was observed on the SDA plates. All the experiments were conducted in triplicate.

[2] = biological target: T1, xanthine oxidase (Bos taurus, UniProt P80457); assay: Xanthine oxidase inhibition assay; format: biochemical
T1 construct: purchased Sigma-Aldrich (St. Louis, MO, USA); host or cells: bovine milk
T1 sequence (P80457 whole entry): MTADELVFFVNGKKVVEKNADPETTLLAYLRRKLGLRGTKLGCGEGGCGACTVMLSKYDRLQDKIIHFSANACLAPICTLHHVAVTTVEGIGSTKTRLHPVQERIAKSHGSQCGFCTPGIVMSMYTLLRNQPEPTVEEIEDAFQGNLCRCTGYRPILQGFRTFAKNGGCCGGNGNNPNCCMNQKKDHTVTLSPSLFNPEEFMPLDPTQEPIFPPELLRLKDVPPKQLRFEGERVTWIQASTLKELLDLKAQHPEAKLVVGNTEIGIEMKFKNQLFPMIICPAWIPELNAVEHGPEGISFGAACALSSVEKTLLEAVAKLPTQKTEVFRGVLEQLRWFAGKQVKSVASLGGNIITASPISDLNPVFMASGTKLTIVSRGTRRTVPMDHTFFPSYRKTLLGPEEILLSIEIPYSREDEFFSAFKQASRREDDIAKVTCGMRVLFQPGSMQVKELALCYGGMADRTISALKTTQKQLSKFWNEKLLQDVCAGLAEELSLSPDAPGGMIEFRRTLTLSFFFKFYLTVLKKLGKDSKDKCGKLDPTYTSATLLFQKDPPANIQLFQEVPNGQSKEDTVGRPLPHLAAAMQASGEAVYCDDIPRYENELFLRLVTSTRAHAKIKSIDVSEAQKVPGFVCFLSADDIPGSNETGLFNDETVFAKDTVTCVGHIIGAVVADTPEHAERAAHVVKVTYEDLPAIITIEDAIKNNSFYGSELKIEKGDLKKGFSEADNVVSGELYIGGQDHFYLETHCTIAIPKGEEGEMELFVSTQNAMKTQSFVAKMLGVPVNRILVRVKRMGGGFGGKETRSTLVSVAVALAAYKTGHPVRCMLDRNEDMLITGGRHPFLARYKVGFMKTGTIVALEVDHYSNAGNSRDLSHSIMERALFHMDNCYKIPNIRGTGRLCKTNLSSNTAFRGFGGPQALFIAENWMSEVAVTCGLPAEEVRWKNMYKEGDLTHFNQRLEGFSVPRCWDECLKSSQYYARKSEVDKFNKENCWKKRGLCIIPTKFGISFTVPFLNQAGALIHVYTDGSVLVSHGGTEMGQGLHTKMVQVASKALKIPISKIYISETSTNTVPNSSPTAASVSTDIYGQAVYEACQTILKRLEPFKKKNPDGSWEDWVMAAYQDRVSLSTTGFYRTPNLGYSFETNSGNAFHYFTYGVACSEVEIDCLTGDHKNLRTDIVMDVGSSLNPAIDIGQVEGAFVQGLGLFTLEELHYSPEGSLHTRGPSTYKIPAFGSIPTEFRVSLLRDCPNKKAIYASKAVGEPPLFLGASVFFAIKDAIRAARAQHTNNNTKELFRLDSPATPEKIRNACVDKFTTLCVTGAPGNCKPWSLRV
Method: Xanthine oxidase activity was determined using a previously established method by monitoring the conversion of xanthine to uric acid ([Trigueros, Oliveira, et al., 2024]). 200 μL of the extract solutions, diluted in 5 mM phosphate buffer (pH 7.4), was mixed with 10 μL of xanthine oxidase solution, incubated for 5 min at 37 °C, followed by the addition of 40 μL of 1.25 mM xanthine solution, and absorbance was measured at 295 nm. A control assay was prepared with buffer.

[3] = tested on: Candida krusei (ATCC 6258); assay: Antifungal activity, Candida krusei; format: cell-based; conditions: Pichia kudriavzevii, ATCC6258
Method: as §1, §2

[4] = ref Yuting et al., 1990; cited from earlier work
[5] = tested on: Candida albicans (ATCC 10231); assay: Antifungal activity, Candida albicans; format: cell-based
Method: as §1, §2

[6] = design: method as in Li et al., 2011; conditions: ref Li et al., 2011; cited from earlier work
[7] = Nitric oxide radical scavenging activity; format: biochemical
Method: The capacity of the onion skin extracts to scavenge the nitric oxide (^●NO) radical was assessed using the method described by [Ferreres et al. (2021)]. This involved mixing 100 μL of the extract solutions, diluted in 0.1 M phosphate buffer (pH 7.4), with the same volume of 20 mM sodium nitroprusside dihydrate. After a 60 min incubation under light, the Griess reagent (100 μL) was added, followed by 10 min incubation in the dark, and absorbance was measured at 560 nm. Quercetin was used as positive control. At least five different concentrations were tested for each onion skin extract, with a minimum of three independent experiments conducted in triplicate. A control was prepared replacing sample with buffer, and a blank with phosphoric acid instead of the Griess reagent.

[8] = Superoxide anion radical scavenging activity; format: biochemical
Method: The ability of the onion skin extracts to scavenge the superoxide anion (O2^●-) radical was determined according to [Ferreres et al. (2021)]. Equal volumes (50 μL) of the extract solutions, diluted in 19 mM phosphate buffer (pH 7.4), and 0.166 mM NADH, and three volumes of 0.043 mM nitrotetrazolium blue chloride were combined. The reaction was initiated by adding 50 μL of 2.7 μM phenazine methosulfate, and absorbance was recorded at 560 nm. A control was prepared substituting sample with buffer.

[9] = tested on: Aspergillus fumigatus (ATCC 204305); assay: Antifungal activity, Aspergillus fumigatus; format: cell-based
Method: as §1, §2

[10] = tested on: Trichophyton rubrum (FF5); assay: Antifungal activity, Trichophyton rubrum; format: cell-based
Method: as §1, §2

[11] = biological target: T2, acetylcholinesterase (Electrophorus electricus, UniProt O42275); assay: Acetylcholinesterase (AChE) inhibition assay; format: biochemical
T2 construct: purchased Sigma-Aldrich (St. Louis, MO, USA)
T2 sequence (O42275 24-633): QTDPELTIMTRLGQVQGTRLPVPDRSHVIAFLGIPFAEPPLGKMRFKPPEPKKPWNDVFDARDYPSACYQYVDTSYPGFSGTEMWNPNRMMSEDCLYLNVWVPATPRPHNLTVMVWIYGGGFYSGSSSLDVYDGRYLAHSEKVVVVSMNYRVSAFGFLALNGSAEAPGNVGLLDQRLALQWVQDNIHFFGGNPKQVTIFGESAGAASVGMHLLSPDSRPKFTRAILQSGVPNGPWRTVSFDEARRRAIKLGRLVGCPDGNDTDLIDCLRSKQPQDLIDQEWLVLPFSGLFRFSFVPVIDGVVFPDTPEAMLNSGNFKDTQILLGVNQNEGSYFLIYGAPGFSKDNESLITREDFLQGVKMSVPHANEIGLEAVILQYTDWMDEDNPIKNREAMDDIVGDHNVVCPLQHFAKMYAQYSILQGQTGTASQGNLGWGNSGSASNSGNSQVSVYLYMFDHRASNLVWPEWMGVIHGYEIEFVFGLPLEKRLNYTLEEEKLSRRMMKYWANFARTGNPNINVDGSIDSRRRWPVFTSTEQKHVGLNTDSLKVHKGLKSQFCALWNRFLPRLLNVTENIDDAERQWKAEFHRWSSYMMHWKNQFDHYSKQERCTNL
Method: Acetylcholinesterase activity was assessed combining 75 μL of the extract solutions, prepared in 50 mM Tris-HCl buffer (pH 8.0), plus 0.1 % (w/v) albumin, with 25 μL of 15 mM ATCI and 125 μL of 3 mM DTNB. The formation of 5-thio-2-nitrobenzoate was monitored at 405 nm ([Trigueros, Oliveira, et al., 2024]).

[12] = design: method as in Li et al., 2011; conditions: ref Li et al., 2011; cited from earlier work; remark: listed apart in the source
[13] = tested on: Nannizzia gypsea (formerly Microsporum gypseum-FF3); assay: Antifungal activity, Nannizzia gypsea; format: cell-based
Method: as §1, §2

[14] = biological target: T3, α-glucosidase (Saccharomyces cerevisiae, UniProt P53341); assay: α-Glucosidase activity assay (pure enzyme); format: biochemical
T3 construct: purchased Sigma-Aldrich (St. Louis, MO, USA)
T3 sequence (P53341 whole entry): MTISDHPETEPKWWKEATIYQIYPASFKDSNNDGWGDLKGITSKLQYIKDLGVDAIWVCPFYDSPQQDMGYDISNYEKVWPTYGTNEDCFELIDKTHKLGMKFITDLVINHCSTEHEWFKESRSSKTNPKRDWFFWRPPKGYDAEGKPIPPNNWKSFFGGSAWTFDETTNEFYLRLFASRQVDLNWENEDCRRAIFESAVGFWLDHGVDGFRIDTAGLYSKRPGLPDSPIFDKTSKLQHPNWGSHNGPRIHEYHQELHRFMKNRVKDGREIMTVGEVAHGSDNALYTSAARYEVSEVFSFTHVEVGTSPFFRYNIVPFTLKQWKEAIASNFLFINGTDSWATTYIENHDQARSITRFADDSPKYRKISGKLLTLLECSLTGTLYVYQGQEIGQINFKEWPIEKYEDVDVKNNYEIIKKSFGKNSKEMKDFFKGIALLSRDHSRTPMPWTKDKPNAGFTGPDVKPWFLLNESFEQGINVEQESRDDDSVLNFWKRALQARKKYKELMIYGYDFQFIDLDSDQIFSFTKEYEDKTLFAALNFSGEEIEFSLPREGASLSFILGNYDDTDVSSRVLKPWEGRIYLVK
Method: Enzymes for in vitro enzymatic assays were aldose-reductase (Homo sapiens, human) from Prozomix (UK), α-amylase (porcine pancreas), α-glucosidase (Saccharomyces cerevisiae), acetylcholinesterase from Electrophorus electricus, lipoxygenase from Glycine max (soybean), tyrosinase from mushroom, xanthine oxidase from bovine milk, all provided by Sigma-Aldrich (St. Louis, MO, USA).
α-Glucosidase activity was evaluated incubating 180 μL of a mixture of the extract solutions, prepared in 10 mM potassium phosphate buffer (pH 7.0), and 20 μL of the enzyme solution at 37 °C for 2 min. Absorbance at 405 nm was measured after adding 100 μL of 2.5 mM 4-nitrophenyl-α-D-glucopyranoside, and after 10 min incubation.

[15] = tested on: Cryptococcus neoformans (CECT1078); assay: Antifungal activity, Cryptococcus neoformans; format: cell-based
Method: as §1, §2

[16] = design: method as in Li et al., 2011; conditions: ref Li et al., 2011; cited from earlier work; remark: listed apart in the source
[17] = biological target: T4, 5-LOX (lipoxygenase) (Glycine max, UniProt P08170); assay: Lipoxygenase (5-LOX) activity assay; format: biochemical, Glycine max (soybean)
T4 construct: purchased Sigma-Aldrich (St. Louis, MO, USA)
T4 sequence (P08170 whole entry): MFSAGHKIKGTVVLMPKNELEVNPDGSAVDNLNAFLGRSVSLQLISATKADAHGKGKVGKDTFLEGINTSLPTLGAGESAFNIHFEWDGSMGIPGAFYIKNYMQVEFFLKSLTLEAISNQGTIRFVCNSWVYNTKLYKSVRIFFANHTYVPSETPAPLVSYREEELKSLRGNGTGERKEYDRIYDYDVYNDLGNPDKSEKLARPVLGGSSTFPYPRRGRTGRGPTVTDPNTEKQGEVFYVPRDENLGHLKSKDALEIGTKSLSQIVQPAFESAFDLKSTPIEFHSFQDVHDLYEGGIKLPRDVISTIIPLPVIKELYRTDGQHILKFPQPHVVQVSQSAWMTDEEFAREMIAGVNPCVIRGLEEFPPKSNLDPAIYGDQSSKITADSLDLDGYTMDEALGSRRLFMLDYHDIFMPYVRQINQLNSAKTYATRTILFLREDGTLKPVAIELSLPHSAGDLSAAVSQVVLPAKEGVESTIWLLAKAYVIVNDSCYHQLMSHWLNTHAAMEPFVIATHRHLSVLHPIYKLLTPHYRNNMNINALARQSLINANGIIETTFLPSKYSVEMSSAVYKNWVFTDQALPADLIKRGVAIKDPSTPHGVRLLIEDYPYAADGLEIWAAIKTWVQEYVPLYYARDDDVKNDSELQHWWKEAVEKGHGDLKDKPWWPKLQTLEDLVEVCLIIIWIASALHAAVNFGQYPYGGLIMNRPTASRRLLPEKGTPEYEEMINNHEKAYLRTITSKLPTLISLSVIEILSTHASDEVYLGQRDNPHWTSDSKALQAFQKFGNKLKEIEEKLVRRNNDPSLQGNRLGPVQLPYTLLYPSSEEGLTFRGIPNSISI
Method: The ability of the extracts and pure compounds to inhibit 5-LOX activity was assessed by measuring their capacity to prevent linoleic oxidation. In short, 200 μL of the extract solutions, diluted in 100 mM phosphate buffer (pH 9.0), was mixed with 20 μL of the enzyme solution and 20 μL of 4.18 mM linoleic acid prepared in ethanol, and the absorbance at 234 nm was measured. A control was prepared with buffer instead of sample ([Trigueros, Oliveira, et al., 2024]).

[18] = tested on: NO production in LPS-induced BV-2 cells; design: method as in Sun et al., 2015; conditions: ref Sun et al., 2015; cited from earlier work
[19] = 100 % growth inhibition, read-out: MIC

**Q.** Which MFC [1] does the source give for `O=C(O)c1ccc(O)c(O)c1` [Protocatechuic acid] here?
**A.** The MFC was 2000 µg/mL (≈ 13 mM).

**Q.** And the MIC [1]?
**A.** The MIC was 500 µg/mL (≈ 3.24 mM).

**Q.** And the IC50 [2]?
**A.** Its IC50 is 908 µM.

**Q.** And the MFC [3]?
**A.** The MFC was > 4000 µg/mL.

**Q.** What about the MIC [3] of the same compound?
**A.** The MIC was > 4000 µg/mL.

**Q.** What about the “IC50, O2●- scavenging” value [4] of the same compound?
**A.** Its value is 310 µg/mL (≈ 2.01 mM).

**Q.** And the MFC ([5]; ATCC10231)?
**A.** Its MFC is > 4000 µg/mL.

**Q.** And the MIC ([5]; ATCC10231)?
**A.** The MIC was > 4000 µg/mL.

**Q.** What about the “IC50, hydroxyl radicals” value [6] of the same compound?
**A.** Its value is 74 µg/mL (≈ 0.48 mM).

**Q.** What about the “IC25, ●NO scavenging” value [7] of the same compound?
**A.** Its value is 237 ± 16 µg/mL (≈ 1.54 mM).

**Q.** And the “●NO scavenging activity” value ([7]; at the maximum tested concentration (1.33 mg/mL))?
**A.** The value was “below 40%”.

**Q.** And the “IC50, O2●- scavenging” value [8]?
**A.** The value was 252 ± 8 µg/mL (≈ 1.64 mM).

**Q.** What about the MFC ([9]; ATCC204305) of the same compound?
**A.** Its MFC is > 4000 µg/mL.

**Q.** And the MIC ([9]; ATCC204305)?
**A.** Its MIC is > 4000 µg/mL.

**Q.** What about the MFC [10] of the same compound?
**A.** The MFC was 2000 µg/mL (≈ 13 mM).

**Q.** What about the MIC [10] of the same compound?
**A.** Its MIC is 2000 µg/mL (≈ 13 mM).

**Q.** And the MIC ([10]; read-out: MIC, 90 % growth inhibition)?
**A.** Its MIC is 1000 µg/mL (≈ 6.49 mM).

**Q.** What about the “IC25, AChE” value [11] of the same compound?
**A.** The value was 1809 ± 31 µg/mL (≈ 11.7 mM).

**Q.** What about the “IC50, DPPH” value [12] of the same compound?
**A.** The value was 1.88 µg/mL (≈ 0.0122 mM).

**Q.** What about the MFC [13] of the same compound?
**A.** Its MFC is > 4000 µg/mL.

**Q.** What about the MIC [13] of the same compound?
**A.** The MIC was > 4000 µg/mL.

**Q.** What about the IC50 [14] of the same compound?
**A.** The IC50 was 2760 µM.

**Q.** And the MFC ([15]; CECT1078)?
**A.** The MFC was 2000 µg/mL (≈ 13 mM).

**Q.** And the MIC ([15]; CECT1078, read-out: MIC, ≥ 95 % growth inhibition)?
**A.** Its MIC is 1000 µg/mL (≈ 6.49 mM).

**Q.** What about the “IC50, ABTS” value [16] of the same compound?
**A.** Its value is 0.89 µg/mL (≈ 0.00577 mM).

**Q.** And the IC50 [17]?
**A.** Its IC50 is 247 µM.

**Q.** With `O=c1c(O)c(-c2ccc(O)c(O)c2)oc2cc(O)cc(O)c12` [Quercetin] as the compound, how does the MIC [1, 19] read?
**A.** The MIC was 500 µg/mL (≈ 1.65 mM).

**Q.** And the MFC ([1]; read-out: MFC)?
**A.** The MFC was 1000 µg/mL (≈ 3.31 mM).

**Q.** And the MIC ([3]; Candida krusei, 100 % growth inhibition, read-out: MIC)?
**A.** Its MIC is ≥ 4000 µg/mL.

**Q.** What about the MFC ([3]; Candida krusei, read-out: MFC) of the same compound?
**A.** The MFC was > 4000 µg/mL.

**Q.** What about the MIC ([5]; ATCC10231, 100 % growth inhibition, read-out: MIC) of the same compound?
**A.** Its MIC is > 4000 µg/mL.

**Q.** What about the MFC ([5]; ATCC10231, read-out: MFC) of the same compound?
**A.** Its MFC is > 4000 µg/mL.

**Q.** And the “IC50, ●NO scavenging” value [7]?
**A.** The value was 49 ± 2 µg/mL (≈ 0.162 mM).

**Q.** And the “IC50, O2●- scavenging” value [8]?
**A.** The value was 22.4 ± 1.1 µg/mL (≈ 0.0741 mM).

**Q.** What about the MIC ([9]; ATCC204305, 100 % growth inhibition, read-out: MIC) of the same compound?
**A.** The MIC was > 4000 µg/mL.

**Q.** What about the MFC ([9]; ATCC204305, read-out: MFC) of the same compound?
**A.** Its MFC is > 4000 µg/mL.

**Q.** And the MIC [10, 19]?
**A.** Its MIC is 1000 µg/mL (≈ 3.31 mM).

**Q.** And the MFC ([10]; read-out: MFC)?
**A.** The MFC was 1000 µg/mL (≈ 3.31 mM).

**Q.** And the MIC [13, 19]?
**A.** Its MIC is > 4000 µg/mL.

**Q.** What about the MFC ([13]; read-out: MFC) of the same compound?
**A.** Its MFC is > 4000 µg/mL.

**Q.** And the “concentrations effectively reducing NO production” value [18]?
**A.** The value was “above 5 μM”.

**Q.** And the MIC ([15]; CECT1078, 100 % growth inhibition, read-out: MIC)?
**A.** Its MIC is 1000 µg/mL (≈ 3.31 mM).

**Q.** What about the MFC ([15]; CECT1078, read-out: MFC) of the same compound?
**A.** The MFC was 2000 µg/mL (≈ 6.62 mM).

**Q.** What about the MIC ([15]; CECT1078, read-out: MIC, 90 % growth inhibition, 90 %) of the same compound?
**A.** Its MIC is 750 µg/mL (≈ 2.48 mM).

Source: article PMC12320693, “Non-edible onion skin waste as a source of bioactive agents for functional foods development: Chemical composition and multifunctional bioactivity” (Food Chemistry: X, 2025)
